# In ChEMBL document CHEMBL3112471, “Synthesis and evaluation of anti-tubercular activity of 6-(4-substitutedpiperazin-1-yl) phenanthridine analogues” (Eur J Med Chem, 2014):
# What was measured:
# [1] = tested on: Mycobacterium tuberculosis; test: Antitubercular activity against Mycobacterium tuberculosis H37Rv after 5 days by microplate Alamar Blue assay; format: functional; conditions: 120 h
# [2] = Selectivity index, ratio of IC50 for mouse RAW264.7 cells to MIC for Mycobacterium tuberculosis H37Rv; format: toxicity; conditions: read-out: Selectivity Index
# RAW264.7 = test: Cytotoxicity against mouse RAW264.7 cells after 72 hrs by MTT assay; format: cell-based; conditions: RAW264.7, 72 h
# [3] = Cytotoxicity against mouse RAW264.7 cells at 50 uM after 72 hrs by MTT assay; format: cell-based; conditions: read-out: INH
Structure (SMILES),MIC99 [1],other results
c1ccc(CCN2CCN(c3nc4ccccc4c4ccccc34)CC2)cc1,6.25 µg/mL,
c1ccc(C(c2ccccc2)N2CCN(c3nc4ccccc4c4ccccc34)CC2)cc1,3.12 µg/mL,
c1cnc(N2CCN(c3nc4ccccc4c4ccccc34)CC2)nc1,1.56 µg/mL,"selectivity ratio [2]: > 25; IC50 (RAW264.7): > 40 µg/mL; cytotoxicity at 72 h, 50 µM [3]: 18.2%"
c1ccc(N2CCN(c3nc4ccccc4c4ccccc34)CC2)nc1,1.56 µg/mL,"selectivity ratio [2]: > 25; IC50 (RAW264.7): > 40 µg/mL; cytotoxicity at 72 h, 50 µM [3]: 16.4%"
CCN1CCN(c2nc3ccccc3c3ccccc23)CC1,6.25 µg/mL,
Oc1cccc(N2CCN(c3nc4ccccc4c4ccccc34)CC2)c1,3.12 µg/mL,
O=C(O)c1cn(C2CC2)c2cc(N3CCN(C(=O)CN4CCN(c5nc6ccccc6c6ccccc56)CC4)CC3)c(F)cc2c1=O,12.5 µg/mL,
C=Cc1ccc(CN2CCN(c3nc4ccccc4c4ccccc34)CC2)cc1,25 µg/mL,
C(=C\c1ccccc1)/CN1CCN(c2nc3ccccc3c3ccccc23)CC1,25 µg/mL,
c1ccc2c(c1)nc(N1CCNCC1)c1ccccc12,25 µg/mL,
Cc1cccc(N2CCN(c3nc4ccccc4c4ccccc34)CC2)c1,6.25 µg/mL,
Clc1ccc(N2CCN(c3nc4ccccc4c4ccccc34)CC2)cc1,50 µg/mL,
Clc1ccccc1N1CCN(c2nc3ccccc3c3ccccc23)CC1,6.25 µg/mL,
O=[N+]([O-])c1ccc(N2CCN(c3nc4ccccc4c4ccccc34)CC2)cc1,1.56 µg/mL,"selectivity ratio [2]: > 25; IC50 (RAW264.7): > 40 µg/mL; cytotoxicity at 72 h, 50 µM [3]: 21.4%"
COc1cccc(N2CCN(c3nc4ccccc4c4ccccc34)CC2)c1,12.5 µg/mL,
N#Cc1ccccc1N1CCN(c2nc3ccccc3c3ccccc23)CC1,50 µg/mL,
COc1ccc2nc(C)cc(SCc3ccc(C(C)(C)C)cc3)c2c1,,MIC [1]: 0.01 µg/mL
CN1CCN(c2nc3ccccc3c3ccccc23)CC1,6.25 µg/mL,
COc1ccc2cc(/C=N/Nc3ccnc4cc(OC)ccc34)ccc2c1,,MIC [1]: 0.22 µg/mL
NNC(=O)c1ccncc1 [ISONIAZID],0.36 µg/mL,
CO[C@H]1/C=C/O[C@@]2(C)Oc3c(C)c(O)c4c(O)c(c(/C=N/N5CCN(C)CC5)c(O)c4c3C2=O)NC(=O)/C(C)=C\C=C\[C@H](C)[C@H](O)[C@@H](C)[C@@H](O)[C@@H](C)[C@H](OC(C)=O)[C@@H]1C [RIFAMPIN],0.02 µg/mL,
